Where “and” joins values, the source holds several entries; their conditions need not be identical. Equal values may be shown once. Results filed as inconclusive are left out.
System: BDF1 mice, s.c. Lewis lung carcinoma, T/C %
Experiment: NCI In Vivo Anticancer Drug Screen. Data for tumor model Lewis Lung Carcinoma (subcutaneous) in B6D2F1 (BDF1) mice
In short: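 Tumor-bearing mice were treated with test compound, and either survival or tumor size was recorded. Values are the treated-group measurement divided by that of the vehicle-treated control group.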

For O=c1cc(-c2ccccc2)oc2ccc(O)cc12, the T/C (endpoint: mean tumor weight, dose: 3.13 mg/kg/injection, schedule: Q01DX011 (ip), vehicle: saline, higher = larger tumour) was 109 % of control, the T/C (endpoint: mean tumor weight, dose: 6.25 mg/kg/injection, schedule: Q01DX011 (ip), vehicle: saline, higher = larger tumour) was 68 % of control and the T/C (endpoint: mean tumor weight, dose: 25.0 mg/kg/injection, schedule: Q01DX010 (ip), vehicle: saline, higher = larger tumour) was 77 % of control. For the same molecule, the T/C (endpoint: mean tumor weight, dose: 25.0 mg/kg/injection, schedule: Q01DX011 (ip), vehicle: saline, higher = larger tumour) was 119 % of control, the T/C (endpoint: mean tumor weight, dose: 50.0 mg/kg/injection, schedule: Q01DX010 (ip), vehicle: saline, higher = larger tumour) was 101 % of control and the T/C (endpoint: mean tumor weight, dose: 100.0 mg/kg/injection, schedule: Q01DX010 (ip), vehicle: saline, higher = larger tumour) was 86 % of control. The T/C (endpoint: mean tumor weight, dose: 200.0 mg/kg/injection, schedule: Q01DX010 (ip), vehicle: saline, higher = larger tumour) was 97 % of control.

Cc1ccc(NC(=O)N(CCCl)N=O)cc1C was tested, and the T/C (endpoint: median survival time, dose: 3.12 mg/kg/injection, schedule: Q01DX009 (ip), vehicle: Klucel (hydroxypropylcellulose) (HPC), higher = longer survival) was 112 % of control and the T/C (endpoint: median survival time, dose: 6.25 mg/kg/injection, schedule: Q01DX009 (ip), vehicle: Klucel (hydroxypropylcellulose) (HPC), higher = longer survival) was 87 % of control.

With CC(=O)c1c(O)c(C)c(O)c2c1OC1=CC(=O)C(C(C)=O)C(=O)C12C (centres undefined) the T/C (endpoint: median survival time, dose: 6.25 mg/kg/injection, schedule: Q01DX009 (ip), vehicle: gum acacia, higher = longer survival) was 111 % of control, the T/C (endpoint: median survival time, dose: 12.5 mg/kg/injection, schedule: Q01DX009 (ip), vehicle: gum acacia, higher = longer survival) was 95 % of control and 110 % of control and the T/C (endpoint: median survival time, dose: 25.0 mg/kg/injection, schedule: Q01DX009 (ip), vehicle: gum acacia, higher = longer survival) was 101 % of control and 102 % of control and 123 % of control. The T/C (endpoint: median survival time, dose: 50.0 mg/kg/injection, schedule: Q01DX009 (ip), vehicle: gum acacia, higher = longer survival) was 101 % of control and 113 % of control and 115 % of control, the T/C (endpoint: median survival time, dose: 100.0 mg/kg/injection, schedule: Q01DX009 (ip), vehicle: gum acacia, higher = longer survival) was 98 % of control and 116 % of control and 123 % of control and the T/C (endpoint: median survival time, dose: 200.0 mg/kg/injection, schedule: Q01DX009 (ip), vehicle: gum acacia, higher = longer survival) was 106 % of control.

With CCCCCCCCCCCCCS the T/C (endpoint: mean tumor weight, dose: 66.0 mg/kg/injection, schedule: Q01DX011 (ip), vehicle: saline, higher = larger tumour) was 106 % of control, the T/C (endpoint: mean tumor weight, dose: 100.0 mg/kg/injection, schedule: Q01DX011 (ip), vehicle: saline, higher = larger tumour) was 77 % of control and the T/C (endpoint: mean tumor weight, dose: 150.0 mg/kg/injection, schedule: Q01DX011 (ip), vehicle: saline, higher = larger tumour) was 91 % of control.

Cc1cc(N(CC(C)Br)CC(C)Br)ccc1N=Nc1ccccc1C(=O)O (centres undefined) was tested, and the T/C (endpoint: median survival time, dose: 3.12 mg/kg/injection, schedule: Q01DX009 (ip), vehicle: saline with Tween-80, higher = longer survival) was 108 % of control and the T/C (endpoint: median survival time, dose: 6.25 mg/kg/injection, schedule: Q01DX009 (ip), vehicle: saline with Tween-80, higher = longer survival) was 95 % of control and 102 % of control.

With CCCCCCCCCCCCCCCC(=O)OCC1OC(n2ccc(N)nc2=O)C(O)C1O (centres undefined) the T/C (endpoint: median tumor weight (est.), dose: 12.0 mg/kg/injection, schedule: Q01DX015 (ip), vehicle: saline with Tween-80, higher = larger tumour) was 54 % of control, the T/C (endpoint: median tumor weight (est.), dose: 18.0 mg/kg/injection, schedule: Q01DX015 (ip), vehicle: saline with Tween-80, higher = larger tumour) was 66 % of control and the T/C (endpoint: median tumor weight (est.), dose: 27.0 mg/kg/injection, schedule: Q01DX015 (ip), vehicle: saline with Tween-80, higher = larger tumour) was 59 % of control.

COC(=O)C1=C(C(=O)OC)C2CC3C4CC=C5CC(OC(C)=O)CCC5(C)C4CCC3(C)C2=C(OC(C)=O)C1 (centres undefined) was tested, and the T/C (endpoint: mean tumor weight, dose: 62.5 mg/kg/injection, schedule: Q01DX011 (sc), vehicle: saline, higher = larger tumour) was 105 % of control, the T/C (endpoint: mean tumor weight, dose: 125.0 mg/kg/injection, schedule: Q01DX011 (sc), vehicle: saline, higher = larger tumour) was 99 % of control and the T/C (endpoint: mean tumor weight, dose: 250.0 mg/kg/injection, schedule: Q01DX011 (sc), vehicle: saline, higher = larger tumour) was 97 % of control.

In the case of CCn1cnc2c(SC)nc(N)nc21, the T/C (endpoint: mean tumor weight, dose: 100.0 mg/kg/injection, schedule: Q01DX011 (ip), vehicle: other, higher = larger tumour) is reported as 50 % of control, the T/C (endpoint: mean tumor weight, dose: 250.0 mg/kg/injection, schedule: Q01DX011 (ip), vehicle: other, higher = larger tumour) is reported as 60 % of control and the T/C (endpoint: mean tumor weight, dose: 500.0 mg/kg/injection, schedule: Q01DX011 (ip), vehicle: other, higher = larger tumour) is reported as 67 % of control. The T/C (endpoint: mean tumor weight, dose: 1000.0 mg/kg/injection, schedule: Q01DX011 (ip), vehicle: other, higher = larger tumour) was 42 % of control.

For [I][Hg][CH2]C1OCCOC1[CH2][Hg][I] (centres undefined), the T/C (endpoint: mean tumor weight, dose: 18.75 mg/kg/injection, schedule: Q01DX011 (ip), vehicle: saline, higher = larger tumour) was 79 % of control, the T/C (endpoint: mean tumor weight, dose: 37.5 mg/kg/injection, schedule: Q01DX011 (ip), vehicle: saline, higher = larger tumour) was 64 % of control and the T/C (endpoint: mean tumor weight, dose: 75.0 mg/kg/injection, schedule: Q01DX011 (ip), vehicle: saline, higher = larger tumour) was 54 % of control.

For C/C=C(\C)C(=O)N/N=C\c1cc(Cl)cc(Cl)c1O, the T/C (endpoint: median survival time, dose: 12.5 mg/kg/injection, schedule: Q01DX009 (ip), vehicle: olive oil, sesame oil, peanut oil, higher = longer survival) was 102 % of control, the T/C (endpoint: median survival time, dose: 25.0 mg/kg/injection, schedule: Q01DX009 (ip), vehicle: olive oil, sesame oil, peanut oil, higher = longer survival) was 112 % of control and the T/C (endpoint: median survival time, dose: 50.0 mg/kg/injection, schedule: Q01DX009 (ip), vehicle: olive oil, sesame oil, peanut oil, higher = longer survival) was 90 % of control. The T/C (endpoint: median survival time, dose: 200.0 mg/kg/injection, schedule: Q01DX009 (ip), vehicle: olive oil, sesame oil, peanut oil, higher = longer survival) was 86 % of control.

N/N=C(\N)c1nn(C2OC(CO)C(O)C2O)c2ncnc(N)c12 (centres undefined) was tested, and the T/C (endpoint: median survival time, dose: 40.0 mg/kg/injection, schedule: Q01DX005 (ip), vehicle: saline, higher = longer survival) was 124 % of control and the T/C (endpoint: median survival time, dose: 80.0 mg/kg/injection, schedule: Q01DX005 (ip), vehicle: saline, higher = longer survival) was 104 % of control.

Source: PubChem BioAssay AID270 (DTP/NCI, 2004)
